In publication PMC5298231, “The Malaria Parasite's Lactate Transporter PfFNT Is the Target of Antiplasmodial Compounds Identified in Whole Cell Phenotypic Screens” (PLoS Pathogens, 2017):
Where “and” joins values, the source holds several entries; their conditions need not be identical. Equal entries are not always repeated. Structures can show the parent of a compound that is named as a salt. Peptide text beside a SMILES is read from it.

System: erythrocytes infected with 3D7 trophozoites
Type: cell-based, Plasmodium falciparum
Conditions: sheet Ratio; for Ratio of metabolite abundance, Exp1_1hr: Exp1, 1hr; for Ratio of metabolite abundance, Exp1_3hr: Exp1, 3hr; for Ratio of metabolite abundance, Exp1_6hr: Exp1, 6hr; for Ratio of metabolite abundance, Exp2_1hr: Exp2, 1hr; for Ratio of metabolite abundance, Exp2_3hr: Exp2, 3hr; for Ratio of metabolite abundance, Exp2_6hr: Exp2, 6hr; for Ratio of metabolite abundance, Exp3_1hr: Exp3, 1hr; for Ratio of metabolite abundance, Exp3_3hr: Exp3, 3hr; for Ratio of metabolite abundance, Exp3_6hr: Exp3, 6hr

Row | SMILES | Ratio of metabolite abundance, Exp1_1hr | Ratio of metabolite abundance, Exp1_3hr | Ratio of metabolite abundance, Exp1_6hr | Ratio of metabolite abundance, Exp2_1hr | Ratio of metabolite abundance, Exp2_3hr | Ratio of metabolite abundance, Exp2_6hr | Ratio of metabolite abundance, Exp3_1hr | Ratio of metabolite abundance, Exp3_3hr | Ratio of metabolite abundance, Exp3_6hr
1 | O=C(O)CCC(O)C(=O)O (stereo not drawn) [2-Hydroxyglutarate] | 0.7468 | 0.6009 | 0.699 | 0.8783 | 0.8007 | 0.7015 | 0.9193 | 0.5841 | 0.9208
2 | O=C(O)CCC(=O)C(=O)O [2-Ketoglutarate] | 0.5638 | 0.5076 | 0.5229 | 1.061 | 0.5178 | 0.7675 | 0.6752 | 0.6868 | 0.9353
3 | O=C(O)[C@H](O)COP(=O)(O)O [3-Phosho-D-glycerate] | 0.9975 | 1.1161 | 1.013 | 1.017 | 0.9815 | 1.001 | 0.9949 | 1.065 | 1.039
4 | N[C@@H](COP(=O)(O)O)C(=O)O [3-Phospho-serine] | 0.7768 | 0.7478 | 0.6073 | 1.092 | 0.7496 | 0.7836 | 0.6617 | 0.7708 | 0.5594
5 | NCCCC(=O)O [4-Aminobutanoate] | 3.908 | 0.7769 | 1.748 | 3.257 | 2.342 | 1.761 | 0.9389 | 3.211 | 3.145
6 | O=P(O)(O)OC[C@H]1OC(OP(=O)(O)OP(=O)(O)O)[C@H](O)[C@@H]1O (stereo partly drawn) [5-Phosphoribosyl-1-pyrophosphate] | 1.134 | 1.199 | 1.224 | 2.035 | 1.2624 | 1.3078 | 0.8985 | 1.899 | 1.985
7 | O=C(O)[C@H](O)[C@@H](O)[C@H](O)[C@H](O)COP(=O)(O)O [6-Phospho-D-gluconate] | 1.0502 and 0.8295 | 0.8826 and 0.6724 | 0.7609 and 0.6355 | 0.8989 and 0.6621 | 0.8049 and 0.5841 | 0.8315 and 0.5366 | 0.955 and 0.8159 | 0.8757 and 0.6904 | 0.7181 and 0.6347
8 | Nc1ncnc2c1ncn2[C@@H]1O[C@H](COP(=O)(O)OP(=O)(O)O)[C@@H](O)[C@H]1O [ADP] | 0.7745 | 0.4477 | 0.5852 | 1.167 | 0.7455 | 0.8713 | 0.9108 | 0.6751 | 1.045
9 | Nc1ncnc2c1ncn2[C@@H]1O[C@H](COP(=O)(O)O)[C@@H](O)[C@H]1O [AMP] | 0.6651 | 0.4095 | 0.7534 | 1.745 | 0.5002 | 0.6205 | 1.254 | 1.491 | 1.967
10 | CC(C)C[C@H](NC(=O)[C@@H](NC(=O)[C@H](C)N)[C@@H](C)O)C(=O)N[C@@H](CO)C(=O)O [ATLS] (H-ATLS-OH) | 1.05 | 0.6654 | 0.8386 | 1.031 | 0.8993 | 0.9335 | 1.05 | 1.026 | 0.9156
11 | Nc1ncnc2c1ncn2[C@@H]1O[C@H](COP(=O)(O)OP(=O)(O)OP(=O)(O)O)[C@@H](O)[C@H]1O [ATP] | 0.9749 | 0.855 | 0.8179 | 0.9538 | 0.8859 | 0.784 | 0.9549 | 0.8395 | 0.7365
12 | CC(=O)SCCNC(=O)CCNC(=O)[C@H](O)C(C)(C)COP(=O)(O)OP(=O)(O)OC[C@H]1O[C@@H](n2cnc3c(N)ncnc32)[C@H](O)[C@@H]1OP(=O)(O)O [Acetyl-CoA] | 0.7257 | 0.4303 | 0.3828 | 0.6969 | 0.7538 | 0.6508 | 0.7524 | 0.685 | 0.5138
13 | CC(=O)N[C@@H](C)C(=O)O [Acetyl-L-alanine] | 1.844 | 0.6703 | 0.7764 | 1.062 | 0.5861 | 0.7816 | 0.7593 | 1.204 | 0.7219
14 | NCCOP(=O)(O)OP(=O)(O)OC[C@H]1O[C@@H](n2ccc(N)nc2=O)[C@H](O)[C@@H]1O [CDP-ethanolamine] | 1.165 | 0.8992 | 0.8287 | 1.33 | 1.135 | 1.07 | 1.146 | 1.029 | 0.9178
15 | Nc1ccn([C@@H]2O[C@H](COP(=O)(O)OP(=O)(O)O)[C@@H](O)[C@H]2O)c(=O)n1 [CDP] | 1.235 | 0.632 | 0.653 | 1.081 | 0.7109 | 1.157 | 0.7322 | 0.673 | 0.7355
16 | Nc1ccn([C@@H]2O[C@H](COP(=O)(O)O)[C@@H](O)[C@H]2O)c(=O)n1 [CMP] | 1.383 | 1.267 | 1.102 | 0.8705 | 0.5442 | 1.311 | 1.179 | 1.206 | 1.249
17 | Nc1ccn([C@@H]2O[C@H](COP(=O)(O)OP(=O)(O)OP(=O)(O)O)[C@@H](O)[C@H]2O)c(=O)n1 [CTP] | 0.8417 | 0.6895 | 0.6055 | 0.8987 | 0.9317 | 0.7353 | 0.7379 | 0.8137 | 0.693
18 | CC(C)CCC[C@@H](C)[C@H]1CC[C@H]2[C@@H]3CC=C4C[C@@H](OS(=O)(=O)O)CC[C@]4(C)[C@H]3CC[C@]12C [Cholesteryl sulfate] | 0.8398 | 0.919 | 0.8716 | 0.7894 | 1.057 | 0.9329 | 0.813 | 0.7802 | 0.8279
19 | CC(C)(COP(=O)(O)OP(=O)(O)OC[C@H]1O[C@@H](n2cnc3c(N)ncnc32)[C@H](O)[C@@H]1OP(=O)(O)O)[C@@H](O)C(=O)NCCC(=O)NCCS [CoA] | 0.7833 | 0.6851 | 0.6052 | 0.7277 | 0.6878 | 0.6949 | 0.705 | 0.6678 | 0.6155
20 | O=C1O[C@H]([C@H](O)CO)[C@H](O)[C@H]1O [D-Glucono-1-4-lactone] | 3.064 | 5.2964 | 6.162 | 1.636 | 4.1814 | 4.766 | 5.473 | 2.843 | 3.44
